From paper PMC9029618, “Attenuation of Scopolamine-Induced Amnesia via Cholinergic Modulation in Mice by Synthetic Curcumin Analogs” (Molecules, 2022)
pIC50: −log10 of the molar value. Where two headings read alike, the source gives them in different places.

Columns and labels:
[1] = test system: scopolamine-induced amnesic mice; experiment: Elevated plus maze (EPM), scopolamine-induced amnesia; format: in vivo; conditions: scopolamine 1 mg/kg i.p.
From the text: Elevated plus maze paradigm is an important behavioral model for evaluation of anti-amnesic potentials in mice. This apparatus comprised of two open and two closed arms with dimensions of 16 cm × 5 cm × 12 cm and elevated 25 cm from the floor on a wooden stand. The EPM was designed in plus shape from two acrylic sheets having a central platform with dimensions of 5 cm × 5 cm. Initially, mice were placed in one of the open arms in such a way that it was directed away from the central platform. Then TLT was recorded after the mice moved to the closed arm, with their four legs from the open arm and then the mice were returned to their home cage. The time of exploration of the apparatus for each animal was 90 s. […] Reduction of TLT indicated memory-enhancing effect of the test samples. The inflexion ratio (IR) was calculated as: IR=L0−L1/L0 where L1 presents the initial transfer latency (s), and L0 is the retention transfer latency (s).

AChE = biological target: T1, AChE (Electrophorus electricus, UniProt O42275); experiment: biochemical; conditions: for IC50: AChE from electric eel, Ellman's method, n = 3, read-out: AChEI (IC50 (nM))
T1 construct: The enzymes AChE and BuChE were obtained from electric eel and equine serum, respectively; from tissue; host or cells: electric eel
T1 sequence (O42275 24-633): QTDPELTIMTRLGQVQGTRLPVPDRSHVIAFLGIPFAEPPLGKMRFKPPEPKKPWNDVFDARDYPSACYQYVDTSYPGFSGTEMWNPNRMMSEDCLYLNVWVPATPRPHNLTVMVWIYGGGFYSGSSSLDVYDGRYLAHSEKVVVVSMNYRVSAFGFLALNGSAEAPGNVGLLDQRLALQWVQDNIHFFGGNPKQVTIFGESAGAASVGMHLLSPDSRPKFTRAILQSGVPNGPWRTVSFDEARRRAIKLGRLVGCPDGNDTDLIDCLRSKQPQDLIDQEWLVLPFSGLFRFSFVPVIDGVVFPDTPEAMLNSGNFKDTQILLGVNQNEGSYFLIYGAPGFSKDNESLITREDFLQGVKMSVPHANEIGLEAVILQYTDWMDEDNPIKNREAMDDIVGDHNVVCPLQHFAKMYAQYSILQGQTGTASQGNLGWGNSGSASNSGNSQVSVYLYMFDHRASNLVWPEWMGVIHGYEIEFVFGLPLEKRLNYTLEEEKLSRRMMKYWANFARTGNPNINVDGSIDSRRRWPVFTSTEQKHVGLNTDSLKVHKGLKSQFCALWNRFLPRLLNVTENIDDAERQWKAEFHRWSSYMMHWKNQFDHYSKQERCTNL
Description: (§1) The in vitro cholinesterase assay of the synthesized curcumin analogs were carried out according to the Ellman’s method with slight modification. The enzymes AChE and BuChE were obtained from electric eel and equine serum, respectively. […] The final concentrations of AChE 0.03 U/mL and 0.01 U/mL of BuChE were achieved. […] The experiment was started by adding 5 µL enzyme solutions to cuvette, then 205 µL test sample and 5 µL DTNB reagents were added. Substrate solution (5 µL) was added, and the solution mixture was kept in a water bath for 15 min at 30 °C.

BuChE = biological target: T2, BuChE (Equus caballus, UniProt P81908); experiment: biochemical; conditions: for IC50: BuChE from equine serum, Ellman's method, n = 3, read-out: BuChEI (IC50 (nM))
T2 construct: The enzymes AChE and BuChE were obtained from electric eel and equine serum, respectively; from tissue; host or cells: equine serum
T2 sequence (P81908 whole entry): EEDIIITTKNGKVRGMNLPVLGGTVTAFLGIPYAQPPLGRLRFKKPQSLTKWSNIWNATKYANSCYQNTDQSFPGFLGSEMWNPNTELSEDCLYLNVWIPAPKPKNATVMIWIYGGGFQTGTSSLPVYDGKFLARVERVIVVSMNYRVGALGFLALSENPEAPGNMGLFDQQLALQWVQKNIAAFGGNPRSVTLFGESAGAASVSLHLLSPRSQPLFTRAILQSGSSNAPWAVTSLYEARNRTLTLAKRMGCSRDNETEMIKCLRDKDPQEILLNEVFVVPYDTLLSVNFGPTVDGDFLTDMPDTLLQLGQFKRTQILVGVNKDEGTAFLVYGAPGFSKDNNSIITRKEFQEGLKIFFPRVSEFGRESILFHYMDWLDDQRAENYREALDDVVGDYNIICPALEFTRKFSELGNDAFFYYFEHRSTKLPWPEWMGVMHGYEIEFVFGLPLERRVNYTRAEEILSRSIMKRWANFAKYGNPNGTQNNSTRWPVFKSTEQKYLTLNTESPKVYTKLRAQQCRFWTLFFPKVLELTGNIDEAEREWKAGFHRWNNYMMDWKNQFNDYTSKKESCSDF
Description: as §1

[2] = test system: scopolamine-induced amnesic mice; experiment: Y-maze test, scopolamine-induced amnesia; conditions: scopolamine 1 mg/kg i.p.
Description: A total of sixteen groups of mice, with six in each group, were used in the experiment. Vehicle treated group (Normal control group) were administered 10 mL/kg (p.o) of normal saline. […] Sample treatment groups were administered 7.5 mg/kg and 15 mg/kg (p.o) of synthesized compounds, respectively.
The dimensions of the arms were 15.5 cm high, 6 cm wide, 20 cm long and connected with each other with an angle of 120°. This test was conducted for a 5 min duration for each animal. The order and number of arm entries made by each animal after placing in one arm were recorded. Complete arm entry in any given arm was considered to be when the hind paws were completely inside, and the alternation was the consecutive arm entries into three different arms by each mouse. Ethanol 70% v/v solution was used to clean the Y-maze arena to avoid olfactory cues between each test. […] Mice were freely allowed to explore the objects when they were initially placed at the center of the apparatus. The formula was used to calculate the %SAP by recording the same arm returns (SAR), alternate arm returns (AAR) and the number of arm entries.

[3] = test system: scopolamine-induced amnesic mice; experiment: Novel object recognition test (NORT), scopolamine-induced amnesia; format: in vivo
Description: In this study, the memory-enhancing potentials of synthesized compounds were determined using novel object recognition test mice model. Dimensions of the apparatus were 40 cm × 40 cm × 30 cm and designed from Plexiglass in a box shape. After acclimatization, the mice were habituated with the apparatus for 2–3 min one day before the test. Initially, in the sample phase, two identical objects were placed in the two corners of the apparatus and the mice were allowed to freely explore the apparatus. The objects in the apparatus were explored by each animal either by touching the objects or keeping their noses within 2 cm of them. […] Mice were allowed again to freely explore both the objects in a similar way as in sample phase, and the time spent by each animal exploring the novel and familiar object (F) was recorded.
The following formula was used for calculation of discrimination index. D1=N—F /N+F
D1 = discrimination index; N = novel object; F = familiar object

[4] = biological target: T3, AChE activity in the hippocampi of mice brains (Mus musculus, UniProt P21836); format: in vivo; conditions: ex vivo, vs scopolamine treated group, n = 6
T3 construct: from tissue; host or cells: mouse bilateral hippocampus homogenate, supernatant
T3 sequence (P21836 32-614): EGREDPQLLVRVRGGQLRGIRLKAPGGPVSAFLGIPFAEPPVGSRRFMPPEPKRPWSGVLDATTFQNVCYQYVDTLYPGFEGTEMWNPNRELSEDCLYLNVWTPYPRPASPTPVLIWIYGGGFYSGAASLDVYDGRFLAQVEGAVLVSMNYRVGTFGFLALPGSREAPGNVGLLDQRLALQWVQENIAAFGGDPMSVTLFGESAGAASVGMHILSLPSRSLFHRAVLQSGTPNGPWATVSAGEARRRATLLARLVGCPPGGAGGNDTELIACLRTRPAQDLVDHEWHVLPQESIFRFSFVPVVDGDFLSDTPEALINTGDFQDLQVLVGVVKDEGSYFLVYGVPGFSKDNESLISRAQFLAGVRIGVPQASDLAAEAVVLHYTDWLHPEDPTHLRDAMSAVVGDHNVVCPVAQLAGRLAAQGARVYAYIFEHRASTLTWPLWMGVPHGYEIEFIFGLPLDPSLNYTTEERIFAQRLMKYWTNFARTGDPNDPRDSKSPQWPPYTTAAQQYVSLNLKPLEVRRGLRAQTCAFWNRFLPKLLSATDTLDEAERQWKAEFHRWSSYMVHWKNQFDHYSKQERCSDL
Description: After the behavioral study, the mice were sacrificed by decapitation, providing a quick and painless death by cervical dislocation. The isolated brain of each animal in chilled phosphate buffer saline was subjected into biomarker assays using AChE and BuChE enzymes.
Mice were sacrificed within 24 h of the behavior study; brains were dissected and stored at −80 °C. […] Supernatant was used for the measurement of cholinesterase (AChE and BuChE) activity.
Acetylcholine/Acetyl cholinesterase assay Kit was used for the determination of AChE activity, according to the standard procedure. The assay was carried out using 96-well plate, and every reaction comprised of 100 µL sample, 200 µM Amplex Red reagent, 50 µM of acetylcholine, 1 U/mL horseradish peroxidase (HRP) and 0.1 U/mL choline oxidase in buffer solution. Incubation period for the reaction mixture was 20 min at room temperature in the dark. The fluorescence intensity at 560 nm excitation and 580 nm emission wavelength was measured.

[5] = long-term memory (after 24 h), 7.5 mg/kg
[6] = long-term memory (after 24 h), 15 mg/kg
[7] = short-term memory, donepezil 2 mg/kg
[8] = short-term memory, test phase, donepezil 2 mg/kg

In the case of `O=C(/C=C/c1ccccc1)CC(=O)/C=C/c1ccccc1` [Compound 1a, (1E,6E)-1,7-diphenylhepta-1,6-diene-3,5-dione], the “effect on TLT vs amnesic group” value ([1]; 7.5 mg/kg p.o. 7 days) was “non-significant”, the “effect on TLT vs amnesic group” value ([1]; 15 mg/kg p.o. 7 days) was “non-significant” and the IC50 (AChE) was 2620 nM. The IC50 (BuChE) was 5350 nM, the “% spontaneous alternation performance (% SAP)” value ([2]; 7.5 mg/kg p.o. 7 days) was “poor response” and the “% spontaneous alternation performance (% SAP)” value ([2]; 15 mg/kg p.o. 7 days) was “poor response”. For the same compound, the “discrimination index (DI)” value [3, 5] was “no significant change”, the “discrimination index (DI)” value [3, 6] was “no significant change” and the “discrimination index (DI)” value ([3]; short-term memory, 7.5 mg/kg) was 54.53%. For the same compound, the “discrimination index (DI)” value ([3]; short-term memory, 15 mg/kg) was 55.10%.
With `COc1cc2c(cc1OC)C(=O)C(CC1CCN(Cc3ccccc3)CC1)C2` (stereo not drawn) [Donepezil, reference compound] the “transfer latency time (TLT)” value ([1]; donepezil 2 mg/kg p.o. 7 days, p < 0.001 vs amnesic group) was 34.57 ± 1.93 s, the “% DI, familiar object” value [3, 7] was 32.32% and the “% DI, novel object” value [3, 7] was 65.26%. The “time spent exploring the familiar object” value [3, 8] was 11.49 ± 1.39 s and the “time spent exploring the novel object” value [3, 8] was 21.59 ± 1.44 s.
`Cc1ccc(/C=C/C(=O)CC(=O)/C=C/c2ccc(C)cc2)cc1` [Compound 1b, (1E,6E)-1,7-di-p-tolylhepta-1,6-diene-3,5-dione] was tested, and the “effect on TLT vs amnesic group” value ([1]; 7.5 mg/kg p.o. 7 days) was “non-significant”, the “effect on TLT vs amnesic group” value ([1]; 15 mg/kg p.o. 7 days) was “poor response” and the IC50 (AChE) was 734 nM. For the same compound, the IC50 (BuChE) was 2160 nM, the “effect on scopolamine-increased AChE activity in hippocampus” value [4] was “markedly reduced the increased activity of AChE” and the “% spontaneous alternation performance (% SAP)” value ([2]; 7.5 mg/kg p.o. 7 days) was “poor response”. The “% spontaneous alternation performance (% SAP)” value ([2]; 15 mg/kg p.o. 7 days) was “poor response”, the “discrimination index (DI)” value [3, 5] was 52.45% and the “discrimination index (DI)” value [3, 6] was 53.61%. For the same compound, the “discrimination index (DI)” value ([3]; short-term memory, 7.5 mg/kg) was 55.68% and the “discrimination index (DI)” value ([3]; short-term memory, 15 mg/kg) was 57.47%.
With `O=C(/C=C/c1ccc([N+](=O)[O-])cc1)CC(=O)/C=C/c1ccc([N+](=O)[O-])cc1` [Compound 1f, (1E,6E)-1,7-bis(4-nitrophenyl)hepta-1,6-diene-3,5-dione] the “effect on TLT vs amnesic group” value ([1]; 7.5 mg/kg p.o. 7 days) was “non-significant”, the “effect on TLT vs amnesic group” value ([1]; 15 mg/kg p.o. 7 days) was “non-significant” and the pIC50 (AChE) was 5.23. For the same compound, the pIC50 (BuChE) was 5.01, the “% spontaneous alternation performance (% SAP)” value ([2]; 7.5 mg/kg p.o. 7 days) was “non-significant” and the “% spontaneous alternation performance (% SAP)” value ([2]; 15 mg/kg p.o. 7 days) was “non-significant”. For the same compound, the “discrimination index (DI)” value [3, 5] was “no significant change”, the “discrimination index (DI)” value [3, 6] was “no significant change” and the “discrimination index (DI)” value ([3]; short-term memory, 7.5 mg/kg) was “no promising potential”. The “discrimination index (DI)” value ([3]; short-term memory, 15 mg/kg) was “no promising potential”.
